According to patent US11274268B2, “Detergent compositions for removing heavy metals and formaldehyde” (FNG RESEARCH CO., LTD., priority 2017, dated 2022):

Assays:
human skin = assay: Skin irritation test of active ingredient (patch method, CTFA guidelines); assay type: in vivo; conditions: for Test result (number of subject) (+) / Test result (number of subject) (−) / Test result (number of subject) (++) / Test result (number of subject) (±): 20 subjects, 24 hours patch; for Test result (number of subject) (+): apparent reddening; for Test result (number of subject) (−): no erythema or symptoms; for Test result (number of subject) (++): reddened and swollen; for Test result (number of subject) (±): slightly reddish; for Degree of irritation: Equation 1
Procedure: A total of 20 people (10 men and 10 women in their 20s and 30s) were tested for skin irritation using the patch method according to the guidelines of CTFA (The Cosmetic, Toiletry & Fragrance Association, Inc. Washington, D.C.).
A filter paper disk was placed in an 8 mm diameter, 10 panels of pin chamber.
After 24 hours, the pin chamber was removed, and skin conditions were visually observed. The degree and grade for skin irritation were calculated according to the following Equation 1, and the results are shown in Table 3 below.
[Criteria for Skin Irritation]
(−): No erythema or particularly no symptoms; (±): slightly reddish than the periphery; (+): Apparent reddening than periphery; (++): More reddened and swollen than periphery.
[Grade for Skin Irritation]
Degree of irritation 0-0.1: Grade I (unstimulated);
Degree of irritation 0.11-0.3: Grade II (weakly stimulated);
Degree of irritation 0.31-0.5: Grade III (moderately stimulated);
Degree of irritation 0.51 or more: Grade IV (strongly stimulated)

[1] = Formaldehyde removing ability test (GC); conditions: 2.0% formaldehyde solution, 3 molar equivalents, room temperature

SMILES | Grade (human skin; content 0.1%) | Test result (number of subject) (+) (human skin; content 0.1%) | Test result (number of subject) (−) (human skin; content 0.1%) | Test result (number of subject) (++) (human skin; content 0.1%) | Test result (number of subject) (±) (human skin; content 0.1%) | Degree of irritation (human skin; content 0.1%) | Grade (human skin; content 0.5%) | Test result (number of subject) (+) (human skin; content 0.5%) | Test result (number of subject) (−) (human skin; content 0.5%) | Test result (number of subject) (++) (human skin; content 0.5%) | Test result (number of subject) (±) (human skin; content 0.5%) | Degree of irritation (human skin; content 0.5%) | Grade (human skin; content 1.0%) | Test result (number of subject) (+) (human skin; content 1.0%) | Test result (number of subject) (−) (human skin; content 1.0%) | Test result (number of subject) (++) (human skin; content 1.0%) | Test result (number of subject) (±) (human skin; content 1.0%) | Degree of irritation (human skin; content 1.0%) | Area (formaldehyde, GC) ([1]; 30 min) | Area (formaldehyde, GC) ([1]; 180 min) | further results
O=C(O)c1cncc(N2CCN(c3cncc(C(=O)O)c3)CCN(c3cncc(C(=O)O)c3)CCN(c3cncc(C(=O)O)c3)CC2)c1 [Embodiment 7, 5,5′,5″,5′″-(1,4,7,10-tetraazacyclododecane-1,4,7,10-tetrayl)tetranicotinic Acid] | I (Degree of irritation 0-0.1: Grade I (unstimulated)) | 0 | 20 | 0 | 0 | 0 | I (Degree of irritation 0-0.1: Grade I (unstimulated)) | 0 | 20 | 0 | 0 | 0 | I (Degree of irritation 0-0.1: Grade I (unstimulated)) | 0 | 20 | 0 | 0 | 0 | 0.181 mAU * min | 0 mAU * min | Area (formaldehyde, GC) ([1]; Initial): 0.305 mAU * min
O=C(O)c1ccc(N2CCN(c3ccc(C(=O)O)o3)CCN(c3ccc(C(=O)O)o3)CCN(c3ccc(C(=O)O)o3)CC2)o1 [Embodiment 8, 5,5′,5″,5′″-(1,4,7,10-tetraazacyclododecane-1,4,7,10-tetrayl)tetrakis(furan-2-carboxylic Acid)] | I (Degree of irritation 0-0.1: Grade I (unstimulated)) | 0 | 20 | 0 | 0 | 0 | I (Degree of irritation 0-0.1: Grade I (unstimulated)) | 0 | 20 | 0 | 0 | 0 | I (Degree of irritation 0-0.1: Grade I (unstimulated)) | 0 | 18 | 0 | 2 | 0.10 | 0.168 mAU * min | 0 mAU * min | Area (formaldehyde, GC) ([1]; Initial): 0.305 mAU * min
O=C(O)CN1CCCN(CC(=O)O)CCN(CC(=O)O)CCCN(CC(=O)O)CC1 [Embodiment 9, 2,2′,2″,2′″-(1,4,8,11-tetraazacyclotetradecane-1,4,8,11-tetrayl)tetraacetic Acid] | I (Degree of irritation 0-0.1: Grade I (unstimulated)) | 0 | 20 | 0 | 0 | 0 | I (Degree of irritation 0-0.1: Grade I (unstimulated)) | 0 | 20 | 0 | 0 | 0 | I (Degree of irritation 0-0.1: Grade I (unstimulated)) | 0 | 18 | 0 | 2 | 0.10 | 0.182 mAU * min | 0 mAU * min | Area (formaldehyde, GC) ([1]; Initial): 0.305 mAU * min
O=C(O)c1ccc(N2CCCN(c3ccc(C(=O)O)cc3)CCN(c3ccc(C(=O)O)cc3)CCCN(c3ccc(C(=O)O)cc3)CC2)cc1 [Embodiment 10, 4,4′,4″,4′-(1,4,8,11-tetraazacyclotetradecane-1,4,8,11-tetrayl)tetrabenzoic Acid] | I (Degree of irritation 0-0.1: Grade I (unstimulated)) | 0 | 20 | 0 | 0 | 0 | I (Degree of irritation 0-0.1: Grade I (unstimulated)) | 0 | 20 | 0 | 0 | 0 | I (Degree of irritation 0-0.1: Grade I (unstimulated)) | 0 | 19 | 0 | 1 | 0.05 | 0.171 mAU * min | 0 mAU * min | Area (formaldehyde, GC) ([1]; Initial): 0.305 mAU * min
O=C(O)c1cncc(N2CCCN(c3cncc(C(=O)O)c3)CCN(c3cncc(C(=O)O)c3)CCCN(c3cncc(C(=O)O)c3)CC2)c1 [Embodiment 11, 5,5′,5″,5′″-(1,4,8,11-tetraazacyclotetradecane-1,4,8,11-tetrayl)tetranicotinic Acid] | I (Degree of irritation 0-0.1: Grade I (unstimulated)) | 0 | 20 | 0 | 0 | 0 | I (Degree of irritation 0-0.1: Grade I (unstimulated)) | 0 | 20 | 0 | 0 | 0 | I (Degree of irritation 0-0.1: Grade I (unstimulated)) | 0 | 18 | 0 | 2 | 0.10 | 0.174 mAU * min | 0 mAU * min | Area (formaldehyde, GC) ([1]; Initial): 0.305 mAU * min
O=C(O)c1ccc(N2CCCN(c3ccc(C(=O)O)o3)CCN(c3ccc(C(=O)O)o3)CCCN(c3ccc(C(=O)O)o3)CC2)o1 [Embodiment 12, 5,5′,5″,5′″-(1,4,8,11-tetraazacyclotetradecane-1,4,8,1-tetrayl)tetrakis(furan-2-carboxylic Acid)] | I (Degree of irritation 0-0.1: Grade I (unstimulated)) | 0 | 20 | 0 | 0 | 0 | I (Degree of irritation 0-0.1: Grade I (unstimulated)) | 0 | 20 | 0 | 0 | 0 | I (Degree of irritation 0-0.1: Grade I (unstimulated)) | 0 | 19 | 0 | 1 | 0.05 | 0.170 mAU * min | 0 mAU * min | Area (formaldehyde, GC) ([1]; Initial): 0.305 mAU * min
